Here are results for 8 molecules from patent publication US8906929B2, “Inhibitors of human immunodeficiency virus replication” (priority 2012, dated 2014).

Structures are written as SMILES. pEC50: −log10 of the molar value.

The subject of this experiment is recombinant NL-Rluc virus. Nature of the experiment: Inhibition of HIV replication (NL-RLuc virus in MT-2 cells, luciferase readout). The experiment is classed as cell-based. Particulars: Human immunodeficiency virus 1, MT2, 120 h, 5 days of incubation, 10% FBS.
As for `Cc1nc2cc3nn2c(c1[C@H](OC(C)(C)C)C(=O)O)N1CCC(C)(CC1)OCCC[C@H](C)Oc1ccccc1-c1cccc-3c1` [Example 24, (2S)-2-(tert-Butoxy)-2-[(22S)-4,22,27-trimethyl-21,26-dioxa-1,5,7,8-tetraazahexacyclo[25.2.2.1^6,^9.1^10,^14.0^2,^7.0^15,^20]tritriaconta-2,4,6(33),8,10(32),11,13,15(20),16,18-decaen-3-yl]acetic acid], the pEC50 was 8.10.

With `Cc1nc2cc3nn2c(c1[C@H](OC(C)(C)C)C(=O)O)N1CCC(C)(CC1)OCCC[C@@H](C)Oc1ccccc1-c1cccc-3c1` [Example 25, (2S)-2-(tert-Butoxy)-2-[(22R)-4,22,27-trimethyl-21,26-dioxa-1,5,7,8-tetraazahexacyclo[25.2.2.1^6,^9.1^10,^14.0^2,^7.0^15,^20]tritriaconta-2,4,6(33),8,10(32),11,13,15(20),16,18-decaen-3-yl]acetic acid], the pEC50 was 7.42.

Consider `Cc1nc2cc3nn2c(c1[C@H](OC(C)(C)C)C(=O)O)N1CCC(C)(CC1)OCC=CCCOc1ccccc1-c1cccc-3c1` [Example 26, (2S)-2-(tert-Butoxy)-2-[4,28-dimethyl-21,27-dioxa-1,5,7,8-tetraazahexacyclo[26.2.2.1^6,^9.1^10,^14.0^2,^7.0^15,^20]tetratriaconta-2,4,6(34),8,10(33),11,13,15(20),16,18,24-undecaen-3-yl]acetic acid], for which the negative logarithm of the EC50 (pEC50) was 7.39.

For `Cc1nc2cc3nn2c(c1[C@H](OC(C)(C)C)C(=O)O)N1CCC(C)(CC1)OCCCCCOc1ccccc1-c1cccc-3c1` [Example 27, (2S)-2-(tert-Butoxy)-2-{4,28-dimethyl-21,27-dioxa-1,5,7,8-tetraazahexacyclo[26.2.2.1^6,^9.1^10,^14.0^2,^7.0^15,^20]tetratriaconta-2,4,6(34),8,10(33),11,13,15(20),16,18-decaen-3-yl}acetic acid], the negative logarithm of the EC50 (pEC50) was 8.00.

Regarding `Cc1nc2cc3nn2c(c1[C@H](OC(C)(C)C)C(=O)O)N1CCC(C)(CC1)OCCCC[C@@H](C)Oc1ccccc1-c1cccc-3c1` [Example 28, (2S)-2-(tert-Butoxy)-2-[(22R)-4,22,28-trimethyl-21,27-dioxa-1,5,7,8-tetraazahexacyclo[26.2.2.1^6,^9.1^10,^14.0^2,^7.0^15,^20]tetratriaconta-2,4,6(34),8,10(33), 11, 13, 15 (20),16,18-decaen-3-yl]acetic acid], the negative-log EC50 (pEC50) is 7.40.

Regarding `Cc1nc2cc3nn2c(c1[C@H](OC(C)(C)C)C(=O)O)N1CCC(C)(CC1)OCCCC[C@H](C)Oc1ccccc1-c1cccc-3c1` [Example 29, (2S)-2-(tert-Butoxy)-2-[(22S)-4,22,28-trimethyl-21,27-dioxa-1,5,7,8-tetraazahexacyclo[26.2.2.1^6,^9.1^10,^14.0^2,^7.0^15,^20]tetratriaconta-2,4,6(34),8,10(33), 11, 13, 15 (20),16,18-decaen-3-yl]acetic acid], the pEC50 is 7.74.

As to `Cc1nc2cc3nn2c(c1[C@H](OC(C)(C)C)C(=O)O)N1CCC(C)(CC1)OCCCCCCc1ccccc1-c1cccc-3c1` [Example 30, (2S)-2-(tert-Butoxy)-2-{4,28-dimethyl-27-oxa-1,5,7,8-tetraazahexacyclo[26.2.2.1^6,^9.1^10,^14.0^2,^7.0^15,^20]tetratriaconta-2,4,6(34),8,10(33), 11, 13, 15(20),16,18-decaen-3-yl}acetic acid], the negative-log EC50 (pEC50) is 7.57.

With `Cc1nc2cc3nn2c(c1[C@H](OC(C)(C)C)C(=O)O)N1CCC(C)(CC1)OCC=CCOc1ccc(Cl)cc1-c1cccc-3c1` [Example 31, (2S)-2-(tert-Butoxy)-2-[17-chloro-4,2,7-dimethyl-21,26-dioxa-1,5,7,8-tetraazahexacyclo[25.2.2.1^6,^9.1^10,^14.0^2,^7.0^15,^20]tritriaconta-2,4,6(33),8,10(32),11,13,15(20),16,18,23-undecaen-3-yl]acetic acid], the pEC50 is 8.22.
